Measurements taken from ChEMBL document CHEMBL4321874 (J Med Chem, 2020).
Activity calls are given as the source filed them. The rule behind the calls is not given here.

How the values were obtained:
[1] = target: T1, CDC7/DBF4 (Cell division cycle 7-related protein kinase/Activator of S phase kinase) (Homo sapiens, UniProt O00311); test: Inhibition of N-terminal GST-fused full-length human CDC7 (1 to 574 end residues)/DBF4 (1 to 674 residues) expressed in baculovirus expression system using MCM2 as substrate preincubated with enzyme for 10 mins prior to 1 uM ATP addition by HTRF transcreener ADP assay
[2] = target: Cyclin-dependent kinase 2/cyclin E1 (Homo sapiens, UniProt P24941); test: Inhibition of N-terminal GST-tagged full-length human CDK2 (1 to 298 residues)/Cyclin E (1 to 410 residues) expressed in baculovirus expression system using histone H1 as susbtrate after 90 mins by Kinase-Glo luminescence assay
[3] = target: Rho-associated protein kinase 1 (Homo sapiens, UniProt Q13464); test: Inhibition of N-terminal GST-tagged human ROCK1 catalytic domain (1 to 477 residues) expressed in baculovirus expression system using biotin-STK-substrate 2 as substrate preincubated with enzyme for 5 mins followed by ATP addition and measured after 2 hrs by TR-FRET assay
[4] = system: COLO 205; test: Antiproliferative activity against human COLO205 cells assessed as reduction in cell growth after 3 days by CellTiter-Glo luminescence assay; type: functional, cell-based; conditions: COLO 205, 72 h
[5] = target: T1, CDC7/DBF4 (Cell division cycle 7-related protein kinase/Activator of S phase kinase); test: Inhibition of N-terminal GST-fused full-length human CDC7 (1 to 574 end residues)/DBF4 (1 to 674 residues) expressed in baculovirus expression system using MCM2 as substrate preincubated with enzyme for 60 mins prior to 50 uM ATP addition by HTRF transcreener ADP assay
[6] = target: T2, Cell division cycle 7-related protein kinase (Homo sapiens, UniProt O00311); test: Inhibition of CDC7 in human HeLa cells assessed as inhibition of MCM2 phosphorylation at Ser40 residue in human HeLa cells after 7 hrs by Western blot analysis; type: cell-based
[7] = target: T1, CDC7/DBF4 (Cell division cycle 7-related protein kinase/Activator of S phase kinase); test: Inhibition of N-terminal GST-fused full-length human CDC7 (1 to 574 end residues)/DBF4 (1 to 674 residues) expressed in baculovirus expression system using MCM2 as substrate in presence of 50 uM ATP by HTRF transcreener ADP assay
[8] = Drug metabolism in reaction buffer containing 25 mM HEPES, 0.1% Tween 20, 0.01% BSA, 10 mM Mg(OAc)2, and 1 mM DTT at pH 7.5
[9] = Drug metabolism in reaction buffer containing 20 mM HEPES, 10 mM Mg(OAc)2, and 1 mM DTT at pH 7.5
[10] = Drug metabolism in aqueous media assessed as formaldehyde adduct formation at 5 nmol after 30 mins in presence of excess formaldehyde by QTOF-UPLC analysis
[11] = Drug metabolism in reaction buffer containing 50 mM HEPES, 0.1 mM orthovanadate, 0.01% BSA, 10 mM MgCl2, and 1 mM DTT at pH 7.5
[12] = species: Homo sapiens; test: Selectivity index, ratio of IC50 for N-terminal GST-tagged full-length human CDK2 (1 to 298 residues)/Cyclin E (1 to 410 residues) expressed in baculovirus expression system to IC50 for N-terminal GST-fused full-length human CDC7 (1 to 574 end residues)/DBF4 (1 to 674 residues) expressed in baculovirus expression system
[13] = species: Homo sapiens; test: Selectivity index, ratio of IC50 N-terminal GST-tagged human ROCK1 catalytic domain (1 to 477 residues) expressed in baculovirus expression system to IC50 for N-terminal GST-fused full-length human CDC7 (1 to 574 end residues)/DBF4 (1 to 674 residues) expressed in baculovirus expression system
[14] = target: T2, Cell division cycle 7-related protein kinase; test: Binding affinity to CDC7 (unknown origin) assessed as equilibrium dissociation constant
[15] = target: Glycogen synthase kinase-3 alpha (Homo sapiens) (UniProt P49840); test: Inhibition of kinase tracer 236 binding to N-terminal GST-tagged human full length GSK3alpha expressed in baculovirus expression system at 1000 nM by Lanthascreen Eu kinase binding assay relative to control
[16] = target: Death-associated protein kinase 3 (Homo sapiens) (UniProt O43293); test: Inhibition of full-length human GST-tagged DAPK3 expresssed in baculovirus expression system at 1000 nM by Z'-LYTE assay relative to control
[17] = target: Casein kinase I isoform gamma-2 (Homo sapiens) (UniProt P78368); test: Inhibition of recombinant full-length human His-tagged CSNK1G2 expressed in baculovirus expression system at 1000 nM by Z'-LYTE assay relative to control
[18] = target: CDK9/cyclin T1 (Homo sapiens) (UniProt O60563+P50750); test: Inhibition of full-length recombinant human His-tagged CDK9/Cyclin T1 expressed in baculovirus expression system at 1000 nM by Adapta kinase assay relative to control
[19] = target: Death-associated protein kinase 1 (Homo sapiens, UniProt P53355); test: Inhibition of recombinant human N-terminal GST-tagged DAPK1 catalytic domain (1 to 363 residues) expressed in baculovirus expression system at 1000 nM by Adapta kinase assay relative to control
[20] = Drug metabolism assessed as (4bS)-2-(3-Methyl-1H-pyrazol-4-yl)-5,6,7,8-tetrahydropyrido-[1',2':3,4]imidazo[1,5-a]thieno[3,2-d]pyrimidin-12(4bH)-one formaldehyde adduct formation at 5 nmol after 30 mins in presence of excess formaldehyde by QTOF-UPLC analysis
[21] = system: Mus musculus; test: Effect on PARP cleavage in tumor in BALB/c mouse xenografted with human COLO205 cells at 100 mg/kg, po measured for 16 hrs post-treatment by Western blot analysis; type: functional, organism-based
[22] = target: Dual specificity protein kinase CLK1 (Homo sapiens, UniProt P49759); test: Inhibition of recombinant human GST-tagged CLK1 catalytic domain (129 to 484 residues) expressed in Escherichia coli at 1000 nM by Z'-LYTE assay relative to control
[23] = target: Serine/threonine-protein kinase 17A (Homo sapiens) (UniProt Q9UEE5); test: Inhibition of kinase tracer 236 binding to recombinant full-length human GST-tagged DRAK1 expressed in baculovirus expression system at 1000 nM by Lanthascreen Eu kinase binding assay relative to control
[24] = target: Dual specificity protein kinase CLK4 (Homo sapiens) (UniProt Q9HAZ1); test: Inhibition of kinase tracer 236 binding to recombinant full-length human GST-tagged CLK4 expressed in baculovirus expression system at 1000 nM by Lanthascreen Eu kinase binding assay relative to control
[25] = target: Dual specificity tyrosine-phosphorylation-regulated kinase 1A (Homo sapiens, UniProt Q13627); test: Inhibition of recombinant full-length human GST-tagged DYRK1A expressed in baculovirus expression system at 1000 nM by Z'-LYTE assay relative to control
[26] = target: Dual specificity tyrosine-phosphorylation-regulated kinase 1B (Homo sapiens, UniProt Q9Y463); test: Inhibition of recombinant full-length human GST-tagged DYRK1B expressed in baculovirus expression system at 1000 nM by Z'-LYTE assay relative to control
[27] = target: Homeodomain-interacting protein kinase 4 (Homo sapiens) (UniProt Q8NE63); test: Inhibition of recombinant full-length human N-terminal GST-tagged HIPK4 expressed in baculovirus expression system at 1000 nM by Z'-LYTE assay relative to control
[28] = system: Mus musculus; test: Increase in cyclin B1 expression in tumor in BALB/c mouse xenografted with human COLO205 cells at 100 mg/kg, po measured for 16 hrs post-treatment by Western blot analysis; type: functional, organism-based
[29] = target: Myotonin-protein kinase (Homo sapiens) (UniProt Q09013); test: Inhibition of kinase tracer 236 binding to recombinant full-length human GST-tagged DMPK expressed in baculovirus expression system at 1000 nM by Lanthascreen Eu kinase binding assay relative to control
[30] = target: Glycogen synthase kinase-3 beta (Homo sapiens) (UniProt P49841); test: Inhibition of recombinant full-length human His-tagged GSK3beta expressed in baculovirus expression system at 1000 nM by Z'-LYTE assay relative to control
[31] = target: CDK8/Cyclin C (Homo sapiens) (UniProt P49336+P24863); test: Inhibition of kinase tracer 236 binding to recombinant full-length human His-tagged CDK8/CyclinC expressed in baculovirus expression system at 1000 nM by Lanthascreen Eu kinase binding assay relative to control
[32] = target: Dual specificity protein kinase CLK2 (Homo sapiens) (UniProt P49760); test: Inhibition of GST-tagged human recombinant CLK2 catalytic domain (137 to 498 residues) expressed in baculovirus expression system at 1000 nM by Z'-LYTE assay relative to control
[33] = system: Mus musculus; test: In vivo inhibition of […] in BALB/c mouse xenografted with human COLO205 cells assessed as MCM2 phosphorylation at Ser 41 residue in tumor at 100 mg/kg, po measured for 16 hrs post-treatment by Western blot analysis; type: functional, organism-based

Row | Structure (SMILES) | IC50 [1] | IC50 [2] | IC50 [3] | Ratio IC50 [12] | Ratio IC50 [13] | other results
1 | Cc1n[nH]cc1-c1cc2nc([C@H]3CC4CCN3CC4)[nH]c(=O)c2s1 | 1 nM | > 10000 nM | 460 nM | – | – | –
2 | Cc1n[nH]cc1-c1cc2nc(C34CC(CN3)C4)[nH]c(=O)c2s1 | 0.16 nM | 2700 nM | 220 nM | – | – | EC50 [4]: 750 nM; IC50 [5]: 2.1 nM; IC50 [6]: 130 nM; IC50 [7]: 77 nM
3 | Cc1n[nH]cc1-c1cc2nc([C@H]3CCCCN3)[nH]c(=O)c2s1 | 0.91 nM | 4800 nM | 370 nM | – | – | –
4 | Cc1n[nH]cc1-c1cc2nc([C@@H]3CC4CCN3CC4)[nH]c(=O)c2s1 [SIMUROSERTIB] | – | – | – | – | – | EC50 [4]: 81 nM; Drug metabolism [8]: Metabolite not detected; Drug metabolism [9]: Metabolite not detected; Drug metabolism [10]: Metabolite not detected; Drug metabolism [11]: Metabolite not detected
5 | Cc1n[nH]cc1-c1cc2nc([C@@H]3CCCN3)[nH]c(=O)c2s1 | 0.71 nM | 3900 nM | 360 nM | 5500 | 510 | –
6 | Cc1n[nH]cc1-c1cc2nc([C@@H]3C[C@H](C)CN3)[nH]c(=O)c2s1 | 1.3 nM | 3700 nM | 630 nM | 2800 | 480 | –
7 | Cc1n[nH]cc1-c1cc2nc([C@@H]3CCN3)[nH]c(=O)c2s1 | 2.1 nM | 6900 nM | 760 nM | 3300 | 360 | –
8 | Cc1n[nH]cc1-c1cc2nc([C@@H]3CC=CCN3)[nH]c(=O)c2s1 | 0.53 nM | 4700 nM | 340 nM | 8900 | 640 | –
9 | Cc1n[nH]cc1-c1cc2nc([C@@H]3CCCN3C)[nH]c(=O)c2s1 | 1.9 nM | > 10000 nM | 160 nM | > 5300 | 84 | –
10 | Cc1n[nH]cc1-c1cc2nc([C@H]3NCC[C@@H]3C)[nH]c(=O)c2s1 | 0.61 nM | 620 nM | 130 nM | 1000 | 210 | –
11 | Cc1[nH]ncc1-c1cc2nc([C@@H]3CC4CCN3CC4)[nH]c(=O)c2s1 [SIMUROSERTIB] | 0.26 nM | – | 430 nM | – | – | IC50 [5]: 0.54 nM; Kd [14]: 0.424 nM; IC50 [6]: 17 nM; IC50 [7]: 43 nM
12 | Cc1n[nH]cc1-c1cc2nc([C@@H]3CCCCCN3)[nH]c(=O)c2s1 | 1.2 nM | 2800 nM | 450 nM | 2300 | 380 | –
13 | O=c1[nH]c([C@@H]2CCCCN2)nc2cc(-c3c[nH]nc3C(F)(F)F)sc12 | 0.43 nM | 9500 nM | 530 nM | – | – | EC50 [4]: 230 nM; IC50 [5]: 0.72 nM; IC50 [6]: 41 nM; IC50 [7]: 72 nM
14 | Cc1n[nH]cc1-c1cc2nc([C@@H]3CCCCN3)[nH]c(=O)c2s1 | – | – | – | – | – | inhibition [15]: 89%; inhibition [16]: 92%; inhibition [17]: 87%; inhibition [18]: 90%; inhibition [19]: 85%; Drug metabolism [20]: Metabolite detected; Activity [21]: inactive; inhibition [22]: 81%; inhibition [23]: 99%; inhibition [24]: 100%; inhibition [25]: 98%; inhibition [26]: 96%; inhibition [27]: 87%; Activity [28]: Active; inhibition [29]: 95%; inhibition [30]: 89%; inhibition [31]: 87%; inhibition [32]: 88%; inhibition [33]: inactive
15 | Cc1n[nH]cc1-c1cc2nc([C@]3(C)CCCN3)[nH]c(=O)c2s1 | 9.8 nM | 9900 nM | 270 nM | 1000 | 28 | –
16 | Cc1n[nH]cc1-c1cc2nc([C@@H]3CCC(C)(C)N3)[nH]c(=O)c2s1 | 1.9 nM | > 10000 nM | 1500 nM | > 5300 | 790 | –
17 | Cc1n[nH]cc1-c1cc2nc(C34CCC(CC3)N4)[nH]c(=O)c2s1 | 0.16 nM | 1500 nM | 96 nM | 9400 | 600 | Drug metabolism [8]: Metabolite not detected; Drug metabolism [9]: Metabolite not detected; Drug metabolism [10]: Metabolite not detected; Drug metabolism [11]: Metabolite not detected
